Test results: US12559529B2, “NPY2 receptor agonists” (Boehringer Ingelheim International GmbH, priority 2019, dated 2026)
pKi: −log10 of the molar value. *1 amine or outer side, *2 acyl side, *3 side chain or, on linkers, in order; H or OH if unused. Where a SMILES comes first, the peptide text is derived from it. Side-chain parts run from the residue outwards. The star is where a group is joined. C18 diacid = O=C(O)CCCCCCCCCCCCCCCCC(=O)*; γGlu = O=C(O)[C@H](CCC(=O)[*:2])N[*:1]; Isovaleryl = CC(C)CC(=O)*; AEEA = NCCOCCOCC(=O)O

These molecules were tested against T1, Human Neuropeptide Y2 Receptor (Homo sapiens, UniProt P49146) (assay: Radioligand binding competition assay (RLB)). Conditions: Table 3; human 125I-PYY (1-36) 0.02 nM, Y2 receptor membranes; read-out: Ki.
T1 construct: purchased CHEMICON HTS066M
T1 sequence (P49146 1-381): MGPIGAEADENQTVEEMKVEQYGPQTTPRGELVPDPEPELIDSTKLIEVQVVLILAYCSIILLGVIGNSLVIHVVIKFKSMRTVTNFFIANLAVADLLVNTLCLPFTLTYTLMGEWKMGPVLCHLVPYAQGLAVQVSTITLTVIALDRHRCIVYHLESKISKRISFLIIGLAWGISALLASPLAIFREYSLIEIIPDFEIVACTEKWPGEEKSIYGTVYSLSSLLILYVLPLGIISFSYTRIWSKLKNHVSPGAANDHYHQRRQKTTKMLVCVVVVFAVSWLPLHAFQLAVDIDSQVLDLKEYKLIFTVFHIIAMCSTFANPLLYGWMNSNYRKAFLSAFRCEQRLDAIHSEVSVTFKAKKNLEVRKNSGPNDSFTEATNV
Method in brief: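 Peptide dilutions made in pH 7.4 HEPES assay buffer with 0.2% ovalbumin; human Y2 receptor membranes added at 0.5 μg protein/well; plates shaken 2 h at room temperature; reaction stopped by vacuum filtration onto PEI-treated GF/C filters with ice-cold high-salt washes; radioactivity counted by scintillation.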
`CC(C)CC(=O)N[C@@H](C)C(=O)N1CCC[C@H]1C(=O)N[C@@H](CCC(=O)O)C(=O)N[C@@H](CCCCNC(=O)COCCOCCNC(=O)COCCOCCNC(=O)CC[C@H](NC(=O)CCCCCCCCCCCCCCCCC(=O)O)C(=O)O)C(=O)N1CCC[C@H]1C(=O)N[C@@H](CCC(=O)O)C(=O)N[C@@H](CCC(=O)O)C(=O)N[C@@H](C)C(=O)N[C@@H](C)C(=O)N[C@@H](CO)C(=O)N1CCC[C@H]1C(=O)N[C@@H](CCC(=O)O)C(=O)N[C@@H](CCC(=O)O)C(=O)N[C@@H](CC(C)C)C(=O)N[C@@H](CCC(N)=O)C(=O)N[C@@H](CCCNC(=N)N)C(=O)N[C@@H](Cc1ccc(O)cc1)C(=O)N[C@@H](Cc1ccc(O)cc1)C(=O)N[C@H](C(=O)N[C@@H](CCC(=O)O)C(=O)N[C@@H](CC(C)C)C(=O)N[C@@H](CCCNC(=N)N)C(=O)N[C@@H](Cc1c[nH]cn1)C(=O)N[C@@H](Cc1ccc(O)cc1)C(=O)N[C@@H](Cc1ccc(O)cc1)C(=O)N[C@@H](CC(N)=O)C(=O)N[C@@H](Cc1c[nH]c2ccccc12)C(=O)N[C@@H](CC(C)C)C(=O)N[C@H](C(=O)N[C@@H](CCCNC(=N)N)C(=O)N[C@@H](CCC(N)=O)C(=O)N[C@@H](CCCNC(=N)N)C(=O)N[C@@H](Cc1ccc(O)cc1)C(N)=O)[C@@H](C)O)C(C)C` [Compound 149, N{alpha-4}-(3-methylbutanoyl)-N{epsilon-7}-[2-(2-{2-[2-(2-{2-[(4S)-4-carboxy-4-(17-carboxyheptadecanamido)butanamido]ethoxy}ethoxy)acetamido]ethoxy}ethoxy)acetamido]-[4A,7K,9E,11A,18Q,22V,23E,28Y,30W,31L]hPYY (4-36)] was tested, and the pKi was 8.56. `CC[C@H](C)[C@H](NC(=O)[C@H](CCC(=O)O)NC(=O)[C@H](CCC(=O)O)NC(=O)[C@@H]1CCCN1C(=O)[C@H](CO)NC(=O)[C@H](C)NC(=O)[C@H](CC(=O)O)NC(=O)[C@H](CCC(=O)O)NC(=O)[C@H](CCC(=O)O)NC(=O)[C@H](C)NC(=O)[C@H](CCCCNC(=O)COCCOCCNC(=O)COCCOCCNC(=O)CC[C@H](NC(=O)CCCCCCCCCCCCCCCCC(=O)O)C(=O)O)NC(=O)[C@H](CCC(=O)O)NC(=O)[C@@H]1CCCN1C(=O)[C@H](C)NC(=O)CC(C)C)C(=O)N[C@@H](CCC(N)=O)C(=O)N[C@@H](CCCNC(=N)N)C(=O)N[C@@H](Cc1ccc(O)cc1)C(=O)N[C@@H](Cc1ccc(O)cc1)C(=O)N[C@H](C(=O)N[C@@H](CO)C(=O)N[C@@H](CC(C)C)C(=O)N[C@@H](CCCNC(=N)N)C(=O)N[C@@H](Cc1c[nH]cn1)C(=O)N[C@@H](Cc1ccc(O)cc1)C(=O)N[C@@H](Cc1ccc(O)cc1)C(=O)N[C@@H](CC(N)=O)C(=O)N[C@@H](Cc1c[nH]c2ccccc12)C(=O)N[C@@H](CC(C)C)C(=O)N[C@H](C(=O)N[C@@H](CCCNC(=N)N)C(=O)N[C@@H](CCC(N)=O)C(=O)N[C@@H](CCCNC(=N)N)C(=O)N[C@@H](Cc1ccc(O)cc1)C(N)=O)[C@@H](C)O)C(C)C` [Compound 152, N{alpha-4}-(3-methylbutanoyl)-N{epsilon-7}-[2-(2-{2-[2-(2-{2-[(4S)-4-carboxy-4-(17-carboxyheptadecanamido)butanamido]ethoxy}ethoxy)acetamido]ethoxy}ethoxy)acetamido]-[4A,7K,8A,9E,17I,18Q,22V,28Y,30W,31L]hPYY (4-36)] gave a pKi of 8.29. `CC(C)CC(=O)N[C@@H](C)C(=O)N1CCC[C@H]1C(=O)N[C@@H](CCC(=O)O)C(=O)N[C@@H](CCCCNC(=O)COCCOCCNC(=O)COCCOCCNC(=O)CC[C@H](NC(=O)CCCCCCCCCCCCCCCCC(=O)O)C(=O)O)C(=O)N[C@H](C(=O)N[C@@H](CCC(=O)O)C(=O)N[C@@H](CCC(=O)O)C(=O)N[C@@H](CCC(=O)O)C(=O)N[C@@H](C)C(=O)N[C@@H](CO)C(=O)N1CCC[C@H]1C(=O)N[C@@H](CCC(=O)O)C(=O)N[C@@H](CCC(=O)O)C(=O)N[C@@H](CC(C)C)C(=O)N[C@@H](CCC(N)=O)C(=O)N[C@@H](CCCNC(=N)N)C(=O)N[C@@H](Cc1ccc(O)cc1)C(=O)N[C@@H](Cc1ccc(O)cc1)C(=O)N[C@H](C(=O)N[C@@H](CO)C(=O)N[C@@H](CC(C)C)C(=O)N[C@@H](CCCNC(=N)N)C(=O)N[C@@H](Cc1c[nH]cn1)C(=O)N[C@@H](Cc1ccc(O)cc1)C(=O)N[C@@H](Cc1ccc(O)cc1)C(=O)N[C@@H](CC(N)=O)C(=O)N[C@@H](Cc1c[nH]c2ccccc12)C(=O)N[C@@H](CC(C)C)C(=O)N[C@H](C(=O)N[C@@H](CCCNC(=N)N)C(=O)N[C@@H](CCC(N)=O)C(=O)N[C@@H](CCCNC(=N)N)C(=O)N[C@@H](Cc1ccc(O)cc1)C(N)=O)[C@@H](C)O)C(C)C)C(C)C` [Compound 153, N{alpha-4}-(3-methylbutanoyl)-N{epsilon-7}-[2-(2-{2-[2-(2-{2-[(4S)-4-carboxy-4-(17-carboxyheptadecanamido)butanamido]ethoxy}ethoxy)acetamido]ethoxy}ethoxy)acetamido]-[4A,7K,8V,9E,11E,18Q,22V,28Y,30W,31L]hPYY (4-36)] (Isovaleryl-APEK([AEEA-AEEA-γGlu-C18 diacid])VEEEASPEELQRYYVSLRHYYNWLTRQRY-NH2) gave a pKi of 7.84. `CC(C)CC(=O)N[C@@H](C)C(=O)N1CCC[C@H]1C(=O)N[C@@H](CCC(=O)O)C(=O)N[C@@H](CCCCNC(=O)COCCOCCNC(=O)COCCOCCNC(=O)CC[C@H](NC(=O)CCCCCCCCCCCCCCCCC(=O)O)C(=O)O)C(=O)N1CCC[C@H]1C(=O)N[C@@H](CCC(=O)O)C(=O)N[C@@H](CCC(=O)O)C(=O)N[C@@H](CC(=O)O)C(=O)N[C@@H](C)C(=O)N[C@@H](CO)C(=O)N1CCC[C@H]1C(=O)N[C@@H](CCC(=O)O)C(=O)N[C@@H](CCC(=O)O)C(=O)N[C@H](C(=O)N[C@@H](CCC(N)=O)C(=O)N[C@@H](CCCNC(=N)N)C(=O)N[C@@H](Cc1ccc(O)cc1)C(=O)N[C@@H](Cc1ccc(O)cc1)C(=O)N[C@H](C(=O)N[C@@H](CO)C(=O)N[C@@H](CC(C)C)C(=O)N[C@@H](CCCNC(=N)N)C(=O)N[C@@H](Cc1c[nH]cn1)C(=O)N[C@@H](Cc1ccc(O)cc1)C(=O)N[C@@H](Cc1ccc(O)cc1)C(=O)N[C@@H](CC(N)=O)C(=O)N[C@@H](Cc1c[nH]c2ccccc12)C(=O)N[C@@H](CC(C)C)C(=O)N[C@H](C(=O)N[C@@H](CCCNC(=N)N)C(=O)N[C@@H](CCC(N)=O)C(=O)N[C@@H](CCCNC(=N)N)C(=O)N[C@@H](Cc1ccc(O)cc1)C(N)=O)[C@@H](C)O)C(C)C)[C@@H](C)O` [Compound 155, N{alpha-4}-(3-methylbutanoyl)-N{epsilon-7}-[2-(2-{2-[2-(2-{2-[(4S)-4-carboxy-4-(17-carboxyheptadecanamido)butanamido]ethoxy}ethoxy)acetamido]ethoxy}ethoxy)acetamido]-[4A,7K,9E,17T,18Q,22V,28Y,30W,31L]hPYY (4-36)] gave a pKi of 8.69. For `CC(C)CC(=O)N[C@@H](C)C(=O)N1CCC[C@H]1C(=O)N[C@@H](CCC(=O)O)C(=O)N[C@@H](CCCCNC(=O)COCCOCCNC(=O)COCCOCCNC(=O)CC[C@H](NC(=O)CCCCCCCCCCCCCCCCC(=O)O)C(=O)O)C(=O)N1CCC[C@H]1C(=O)N[C@@H](CCC(=O)O)C(=O)N[C@@H](CCC(=O)O)C(=O)N[C@@H](CC(=O)O)C(=O)N[C@@H](C)C(=O)N[C@@H](CO)C(=O)N1CCC[C@H]1C(=O)N[C@@H](CCC(=O)O)C(=O)N[C@@H](CCC(=O)O)C(=O)N[C@@H](CC(C)C)C(=O)N[C@@H](CCC(N)=O)C(=O)N[C@@H](CCCNC(=N)N)C(=O)N[C@@H](Cc1ccc(O)cc1)C(=O)N[C@@H](Cc1ccc(O)cc1)C(=O)N[C@H](C(=O)N[C@@H](CO)C(=O)N[C@@H](CC(C)C)C(=O)N[C@@H](CCCNC(=N)N)C(=O)N[C@@H](Cc1c[nH]cn1)C(=O)N[C@@H](Cc1ccc(O)cc1)C(=O)N[C@@H](Cc1c[nH]c2ccccc12)C(=O)N[C@@H](CC(N)=O)C(=O)N[C@@H](Cc1ccc(O)cc1)C(=O)N[C@@H](CC(C)C)C(=O)N[C@H](C(=O)N[C@@H](CCCNC(=N)N)C(=O)N[C@@H](CCC(N)=O)C(=O)N[C@@H](CCCNC(=N)N)C(=O)N[C@@H](Cc1ccc(O)cc1)C(N)=O)[C@@H](C)O)C(C)C` [Compound 158, N{alpha-4}-(3-methylbutanoyl)-N{epsilon-7}-[2-(2-{2-[2-(2-{2-[(4S)-4-carboxy-4-(17-carboxyheptadecanamido)butanamido]ethoxy}ethoxy)acetamido]ethoxy}ethoxy)acetamido]-[4A,7K,9E,18Q,22V,28W,30Y,31L]hPYY (4-36)] (Isovaleryl-APEK([AEEA-AEEA-γGlu-C18 diacid])PEEDASPEELQRYYVSLRHYWNYLTRQRY-NH2), the pKi was 8.35.
